Converted amounts (≈) assume the structure as drawn. The source made the active and inactive calls. No cut-off for these calls is given here.
Experiments:
[1] = system: Raoultella planticola; assay: Antimicrobial activity against Klebsiella planticola MTCC 530 after 24 hrs by well diffusion method; type: functional; conditions: MTCC 530, 24 h
[2] = system: Pseudomonas aeruginosa; assay: Antimicrobial activity against Pseudomonas aeruginosa MTCC 2453 after 24 hrs by well diffusion method; type: functional; conditions: MTCC 2453, 24 h
[3] = system: Escherichia coli; assay: Antimicrobial activity against Escherichia coli MTCC 739 after 24 hrs by well diffusion method; type: functional; conditions: MTCC 739, 24 h
[4] = system: Bacillus subtilis; assay: Antimicrobial activity against Bacillus subtilis MTCC 121 after 24 hrs by well diffusion method; type: functional; conditions: MTCC 121, 24 h
[5] = system: Staphylococcus aureus; assay: Antimicrobial activity against Staphylococcus aureus MLS-16 MTCC 2940 after 24 hrs by well diffusion method; type: functional; conditions: MLS-16 MTCC 2940, 24 h
[6] = system: Micrococcus luteus; assay: Antimicrobial activity against Micrococcus luteus MTCC 2470 after 24 hrs by well diffusion method; type: functional; conditions: MTCC 2470, 24 h
[7] = system: Staphylococcus aureus; assay: Antimicrobial activity against Staphylococcus aureus MTCC 96 after 24 hrs by well diffusion method; type: functional; conditions: MTCC 96, 24 h
[8] = system: Vero; assay: Cytotoxicity against african green monkey Vero cells; type: cell-based; conditions: Chlorocebus sabaeus
[9] = system: MRC5; assay: Cytotoxicity against human MRC5 cells; type: cell-based
[10] = system: Mycobacterium tuberculosis; assay: Antimicrobial activity against Mycobacterium tuberculosis H37Rv after 3 weeks by broth dilution method; type: functional; conditions: for MIC: 504 h
[11] = system: Raoultella planticola; assay: Antibiofilm activity against Klebsiella planticola MTCC 530 after 24 hrs by crystal violet assay; type: functional, organism-based; conditions: for IC50: MTCC 530, 24 h
[12] = system: Staphylococcus aureus; assay: Antibiofilm activity against Staphylococcus aureus MLS-16 MTCC 2940 after 24 hrs by crystal violet assay; type: functional, organism-based; conditions: MLS-16 MTCC 2940, 24 h
[13] = system: Staphylococcus aureus; assay: Antibiofilm activity against Staphylococcus aureus MTCC 96 after 24 hrs by crystal violet assay; type: functional, organism-based; conditions: for IC50: MTCC 96, 24 h
[14] = system: Staphylococcus aureus; assay: Antimicrobial activity against methicillin-resistant Staphylococcus aureus after 24 hrs by microdilution method; type: functional
[15] = system: Candida albicans; assay: Antimicrobial activity against Candida albicans MTCC 3017 at 150 ug/ml after 24 hrs by well diffusion method; type: functional, organism-based
[16] = system: Raoultella planticola; assay: Bactericidal activity against Klebsiella planticola MTCC 530 after 24 hrs; type: functional; conditions: MTCC 530, 24 h
[17] = system: Pseudomonas aeruginosa; assay: Bactericidal activity against Pseudomonas aeruginosa MTCC 2453 after 24 hrs; type: functional; conditions: MTCC 2453, 24 h
[18] = system: Escherichia coli; assay: Bactericidal activity against Escherichia coli MTCC 739 after 24 hrs; type: functional; conditions: MTCC 739, 24 h
[19] = system: Bacillus subtilis; assay: Bactericidal activity against Bacillus subtilis MTCC 121 after 24 hrs; type: functional; conditions: MTCC 121, 24 h
[20] = system: Staphylococcus aureus; assay: Bactericidal activity against Staphylococcus aureus MLS-16 MTCC 2940 after 24 hrs; type: functional; conditions: MLS-16 MTCC 2940, 24 h
[21] = system: Staphylococcus aureus; assay: Bactericidal activity against Staphylococcus aureus MTCC 96 after 24 hrs; type: functional; conditions: MTCC 96, 24 h
[22] = system: Enterococcus faecalis; assay: Antimicrobial activity against vancomycin -resistant Enterococcus faecalis after 24 hrs by microdilution method; type: functional
[23] = system: Micrococcus luteus; assay: Bactericidal activity against Micrococcus luteus MTCC 2470 after 24 hrs; type: functional; conditions: MTCC 2470, 24 h
[24] = system: Candida albicans; assay: microbe, parasite or virus in culture; conditions: MTCC 3017, 24 h
Description: Antimicrobial activity against Candida albicans MTCC 3017 after 24 hrs by well diffusion method

SMILES | MIC [1] [µg/mL] | MIC [2] [µg/mL] | MIC [3] [µg/mL] | MIC [4] [µg/mL] | MIC [5] [µg/mL] | MIC [6] [µg/mL] | MIC [7] [µg/mL] | IC50 [8] [µM] | IC50 [9] [µM] | IC50 [11] [µg/mL] | IC50 [12] [µg/mL] | Activity [15] | MBC [16] [µg/mL] | MBC [17] [µg/mL] | MBC [18] [µg/mL] | MBC [19] [µg/mL] | MBC [20] [µg/mL] | MBC [21] [µg/mL] | MBC [23] [µg/mL] | IC50 [13] [µg/mL] | other results
O=C(NCc1cn(Cc2ccc([N+](=O)[O-])cc2)nn1)c1ccc([N+](=O)[O-])o1 | 18.8 (≈ 50.4 µM) | > 150 | > 150 | 2.34 (≈ 6.29 µM) | 4.68 (≈ 12.6 µM) | 4.68 (≈ 12.6 µM) | > 150 | 291 | 213 | 17.9 (≈ 48.1 µM) | 3.8 (≈ 10.2 µM) | inactive | 37.5 (≈ 101 µM) | > 150 | > 150 | 4.68 (≈ 12.6 µM) | 4.68 (≈ 12.6 µM) | > 150 | 9.37 (≈ 25.2 µM) |  | MIC [10]: 8 µg/mL (≈ 21.5 µM); inhibition [13]: inactive; MIC [14]: 8 µg/mL (≈ 21.5 µM); MIC [22]: > 64 µg/mL
O=C(O)c1cn(C2CC2)c2cc(N3CCNCC3)c(F)cc2c1=O [CIPROFLOXACIN] | 0.58 (≈ 1.75 µM) | 0.58 (≈ 1.75 µM) | 0.58 (≈ 1.75 µM) | 0.58 (≈ 1.75 µM) | 0.58 (≈ 1.75 µM) | 0.58 (≈ 1.75 µM) | 0.58 (≈ 1.75 µM) | 192 | 181 |  |  |  | 1.17 (≈ 3.53 µM) | 0.58 (≈ 1.75 µM) | 0.58 (≈ 1.75 µM) | 1.17 (≈ 3.53 µM) | 1.17 (≈ 3.53 µM) | 0.58 (≈ 1.75 µM) | 0.58 (≈ 1.75 µM) |  | 
Clc1ccc(COC(Cn2ccnc2)c2ccc(Cl)cc2Cl)c(Cl)c1 (stereo not drawn) [MICONAZOLE] |  |  |  |  |  |  |  |  |  |  |  |  |  |  |  |  |  |  |  |  | MIC [24]: 9.37 µg/mL (≈ 22.5 µM)
O=C(NCc1cn(Cc2ccc(C(F)(F)F)cc2)nn1)c1ccc([N+](=O)[O-])o1 | > 150 | > 150 | > 150 | 1.17 (≈ 2.96 µM) | 2.34 (≈ 5.92 µM) | 2.34 (≈ 5.92 µM) | > 150 | 289 | 321 |  | 8.4 (≈ 21.2 µM) | inactive | > 150 | > 150 | > 150 | 4.68 (≈ 11.8 µM) | 2.34 (≈ 5.92 µM) | > 150 | 2.34 (≈ 5.92 µM) | 64.7 (≈ 164 µM) | Activity [10]: inactive; inhibition [11]: inactive
CC[C@H]1OC(=O)[C@H](C)[C@@H](O[C@H]2C[C@@](C)(OC)[C@@H](O)[C@H](C)O2)[C@H](C)[C@@H](O[C@@H]2O[C@H](C)C[C@H](N(C)C)[C@H]2O)[C@](C)(O)C[C@@H](C)C(=O)[C@H](C)[C@@H](O)[C@]1(C)O [ERYTHROMYCIN] |  |  |  |  |  |  |  |  |  | 0.19 (≈ 0.259 µM) | 0.21 (≈ 0.286 µM) |  |  |  |  |  |  |  |  | 0.25 (≈ 0.341 µM) | 
COc1cc(Cn2cc(CNC(=O)c3ccc([N+](=O)[O-])o3)nn2)ccc1F | 37.5 (≈ 99.9 µM) | > 150 | > 150 | 2.34 (≈ 6.23 µM) | 9.37 (≈ 25 µM) | 1.17 (≈ 3.12 µM) | > 150 | 225 | 155 | 22.7 (≈ 60.5 µM) | 2.7 (≈ 7.19 µM) | inactive | 37.5 (≈ 99.9 µM) | > 150 | > 150 | 4.68 (≈ 12.5 µM) | 9.37 (≈ 25 µM) | > 150 | 1.17 (≈ 3.12 µM) |  | Activity [10]: inactive; inhibition [13]: inactive
COc1ccc(Cn2cc(CNC(=O)c3ccc([N+](=O)[O-])o3)nn2)cc1[N+](=O)[O-] | 9.37 (≈ 23.3 µM) | > 150 | 18.8 (≈ 46.6 µM) | 2.34 (≈ 5.82 µM) | 4.68 (≈ 11.6 µM) | 4.68 (≈ 11.6 µM) | > 150 | 176 | 198 | 6.1 (≈ 15.2 µM) | 4.1 (≈ 10.2 µM) | inactive | 18.8 (≈ 46.6 µM) | > 150 | 18.8 (≈ 46.6 µM) | 2.34 (≈ 5.82 µM) | 4.68 (≈ 11.6 µM) | > 150 | 9.37 (≈ 23.3 µM) | 91.2 (≈ 227 µM) | MIC [10]: 16 µg/mL (≈ 39.8 µM); MIC [14]: 8 µg/mL (≈ 19.9 µM); MIC [22]: > 64 µg/mL

Source: ChEMBL document CHEMBL3091424, “Anti-tubercular agents. Part 8: synthesis, antibacterial and antitubercular activity of 5-nitrofuran based 1,2,3-triazoles” (Bioorg Med Chem Lett, 2013)
